Test results: patent US10745448B2, “Antiviral peptide and use therefor” (priority 2017, dated 2020)
“And” between values parts separate entries of the source, which are not always exact repeats. Equal entries are not always repeated. No end group written: not given here.

Tested on: vesicular stomatitis Indiana virus (Indiana VSV)
Assay type: cell-based

| Substance | Virus infectivity (virus titer) |
| --- | --- |
| MKTIIALSYIFCLALGKKRTLRKNDRKKR-CONH2 (MKTIIALSYIFCLALGKKRTLRKNDRKKR-NH2) [Sample 2] | 9.07 log10 PFU/mL and 5.95 log10 PFU/mL |
| MKAIIVLLMVVTSNAKKRTLRKNDRKKR-CONH2 (MKAIIVLLMVVTSNAKKRTLRKNDRKKR-NH2) [Sample 3] | 9.23 log10 PFU/mL and 6.34 log10 PFU/mL |
| MLSYLIFALAVSPILGKKRTLRKNDRKKR-CONH2 (MLSYLIFALAVSPILGKKRTLRKNDRKKR-NH2) [Sample 1] | 9.11 log10 PFU/mL and 5.90 log10 PFU/mL |
